# Test results taken from patent publication US20250171462A1 (NICO Therapeutics, Inc., priority 2022, published 2025).
# pIC50: −log10 of the molar value. Like-named read-outs stand apart in the source and are kept apart here.
# Molecular target: T1, full-length SARM1 (FL-SARM1) (Homo sapiens, UniProt Q6SZW1)
# T1 sequence (Q6SZW1 28-724): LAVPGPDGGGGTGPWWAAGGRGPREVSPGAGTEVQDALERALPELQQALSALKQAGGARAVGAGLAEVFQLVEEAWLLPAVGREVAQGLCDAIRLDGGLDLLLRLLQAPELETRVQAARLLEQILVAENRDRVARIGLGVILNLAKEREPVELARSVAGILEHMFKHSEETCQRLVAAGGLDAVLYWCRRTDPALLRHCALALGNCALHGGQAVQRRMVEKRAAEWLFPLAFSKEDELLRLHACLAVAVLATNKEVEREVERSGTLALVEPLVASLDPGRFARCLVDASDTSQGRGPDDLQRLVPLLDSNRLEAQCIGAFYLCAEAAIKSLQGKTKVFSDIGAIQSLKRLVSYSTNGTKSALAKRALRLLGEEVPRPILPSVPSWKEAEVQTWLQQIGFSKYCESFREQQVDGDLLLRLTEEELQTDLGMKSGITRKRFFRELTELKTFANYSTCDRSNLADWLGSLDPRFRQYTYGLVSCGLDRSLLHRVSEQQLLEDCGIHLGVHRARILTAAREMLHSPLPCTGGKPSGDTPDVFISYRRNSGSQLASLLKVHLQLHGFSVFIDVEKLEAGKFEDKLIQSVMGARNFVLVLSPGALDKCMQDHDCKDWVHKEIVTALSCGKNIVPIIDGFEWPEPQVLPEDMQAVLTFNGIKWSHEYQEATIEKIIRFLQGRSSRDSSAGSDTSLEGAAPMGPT
# Assay: FL-SARM1 cellular lysate assay (NAD/NADH-Glo detection of remaining NAD+, NMN-activated)
# Conditions: for IC50: Activity (μM) (IC50)
# [1] = Activity (IC50 class), 11 point curve
# [2] = read-out: Activity (IC50 class), 11 point curve
smiles,measurement,setting,value
"Cc1ccc(NC(=O)[C@@H]2C[C@H](C(F)(F)F)CN2c2ncccn2)cc1-c1cccnn1 [Example 174, (2S,4S)—N-(4-methyl-3-(pyridazin-3-yl)phenyl)-1-(pyrimidin-2-yl)-4-(trifluoromethyl)pyrrolidine-2-carboxamide]",pIC50,[1],< 5.00
same,IC50,11 point curve,25 µM
"Cc1ccc(NC(=O)[C@H]2C[C@@H](C(F)(F)F)CN2c2ncn(C)n2)cc1-c1ncc(F)cn1 [Example 175, (2R,4R)—N-(3-(5-fluoropyrimidin-2-yl)-4-methylphenyl)-1-(1-methyl-1H-1,2,4-triazol-3-yl)-4-(trifluoromethyl)pyrrolidine-2-carboxamide]",pIC50,[1],5.00 to 6.00
same,IC50,11 point curve,2.4 µM
"Cc1ccc(NC(=O)[C@@H]2C[C@@H]3[C@H](C2)C3(F)F)cc1-c1cccnn1 [Example 176, trans-6,6-difluoro-N-(4-methyl-3-(pyridazin-3-yl)phenyl)bicyclo[3.1.0]hexane-3-carboxamide]",pIC50,[1],< 5.00
same,IC50,11 point curve,16 µM
"Cc1ccc(NC(=O)[C@H]2C[C@@H]3[C@H](C2)C3(F)F)cc1-c1cccnn1 [Example 177, cis-6,6-difluoro-N-(4-methyl-3-(pyridazin-3-yl)phenyl)bicyclo[3.1.0]hexane-3-carboxamide]",pIC50,[1],< 5.00
same,IC50,11 point curve,23 µM
"Cc1ccc(NC(=O)OCCc2ccccc2)cc1-c1ncccn1 [Example 178, Phenethyl(4-methyl-3-(pyrimidin-2-yl)phenyl)carbamate]",pIC50,[1],5.00 to 6.00
same,IC50,11 point curve,4.3 µM
"C[C@@H]1CC2C[C@H](C1)N2C(=O)Nc1ccc(CF)c(-c2ncc(F)cn2)c1 [Example 179, cis-N-(4-(fluoromethyl)-3-(5-fluoropyrimidin-2-yl)phenyl)-3-methyl-6-azabicyclo[3.1.1]heptane-6-carboxamide]",IC50,11 point curve,0.03 µM
same,pIC50,[2],6.00 to 10.00
"Cc1cnc(-c2cc(NC(=O)N3C4CCCC3C4)ccc2C)nn1 [Example 180, N-(4-methyl-3-(6-methyl-1,2,4-triazin-3-yl)phenyl)-6-azabicyclo[3.1.1]heptane-6-carboxamide]",IC50,11 point curve,0.9 µM
same,pIC50,[2],6.00 to 10.00
"Cc1cc(F)c(NC(=O)N2C3CCCC2C3)cc1-c1ncncn1 [Example 181, N-(2-fluoro-4-methyl-5-(1,3,5-triazin-2-yl)phenyl)-6-azabicyclo[3.1.1]heptane-6-carboxamide]",pIC50,[1],5.00 to 6.00
same,IC50,11 point curve,7 µM
"Cc1cc(F)c(NC(=O)N2CCOc3cccnc3C2C)cc1-c1cccnn1 (stereo not drawn) [Example 182, N-(2-fluoro-4-methyl-5-(pyridazin-3-yl)phenyl)-5-methyl-2,3-dihydropyrido[2,3-f][1,4]oxazepine-4(5H)-carboxamide]",pIC50,[1],5.00 to 6.00
same,IC50,11 point curve,6 µM
"Cc1ccc(NC(=O)N2C3C[C@@H](C)C[C@H]2C3)cc1-c1nncc(C(F)(F)F)n1 [Example 184, cis-3-methyl-N-(4-methyl-3-(5-(trifluoromethyl)-1,2,4-triazin-3-yl)phenyl)-6-azabicyclo[3.1.1]heptane-6-carboxamide]",IC50,11 point curve,0.07 µM
same,pIC50,[2],6.00 to 10.00
"Cc1ccc(NC(=O)N2[C@@H]3C[C@@H](C)C[C@H]2C3)cc1-c1cc(OCF)cnn1 [Example 185, cis-N-(3-(5-(fluoromethoxy)pyridazin-3-yl)-4-methylphenyl)-3-methyl-6-azabicyclo[3.1.1]heptane-6-carboxamide]",IC50,11 point curve,0.05 µM
same,pIC50,[2],6.00 to 10.00
"COC(C)[C@@]12CC(C[C@@H](C)C1)N2C(=O)Nc1ccc(C)c(-c2ncc(F)cn2)c1 (stereo partly drawn) [Example 190, cis-N-(3-(5-fluoropyrimidin-2-yl)-4-methylphenyl)-1-(1-methoxyethyl)-3-methyl-6-azabicyclo[3.1.1]heptane-6-carboxamide]",IC50,11 point curve,0.2 µM
same,pIC50,[2],6.00 to 10.00
"Cc1ccc(NC(=O)N2C3C[C@@H](C)C[C@H]2C3)cc1-c1nccnn1 [Example 215, cis-3-methyl-N-(4-methyl-3-(1,2,4-triazin-3-yl)phenyl)-6-azabicyclo[3.1.1]heptane-6-carboxamide]",IC50,11 point curve,0.03 µM
same,pIC50,[2],6.00 to 10.00
"Cc1ccc(NC(=O)N2C3C[C@@H](C)C[C@H]2C3)cc1-c1cc(Cl)cnn1 [Example 216, cis-N-(3-(5-chloropyridazin-3-yl)-4-methylphenyl)-3-methyl-6-azabicyclo[3.1.1]heptane-6-carboxamide]",IC50,11 point curve,0.01 µM
same,pIC50,[2],6.00 to 10.00
"Cc1ccc(NC(=O)N2C3C[C@@H](C)C[C@H]2C3)cc1-c1cncc(Cl)n1 [Example 217, cis-N-(3-(6-chloropyrazin-2-yl)-4-methylphenyl)-3-methyl-6-azabicyclo[3.1.1]heptane-6-carboxamide]",IC50,11 point curve,0.04 µM
same,pIC50,[2],6.00 to 10.00
"COc1cncc(-c2cc(NC(=O)N3C4C[C@@H](C)C[C@H]3C4)ccc2C)n1 [Example 218, cis-N-(3-(6-methoxypyrazin-2-yl)-4-methylphenyl)-3-methyl-6-azabicyclo[3.1.1]heptane-6-carboxamide]",IC50,11 point curve,0.03 µM
same,pIC50,[2],6.00 to 10.00
"COc1nccnc1-c1cc(NC(=O)N2[C@@H]3C[C@@H](C)C[C@H]2C3)ccc1C [Example 219, cis-N-[3-(3-methoxypyrazin-2-yl)-4-methylphenyl]-3-methyl-6-azabicyclo[3.1.1]heptane-6-carboxamide]",pIC50,[1],5.00 to 6.00
same,IC50,11 point curve,1 µM
"Cc1ccc(NC(=O)N2C3C[C@H](C)C[C@@H]2C3)cc1-c1cc(F)cnn1 [Example 220, cis-N-[3-(5-fluoropyridazin-3-yl)-4-methylphenyl]-3-methyl-6-azabicyclo[3.1.1]heptane-6-carboxamide]",IC50,11 point curve,0.1 µM
same,pIC50,[2],6.00 to 10.00
"Cc1cc(F)c(NC(=O)N2[C@@H]3C[C@@H](C)C[C@H]2C3)cc1-c1cncnn1 [Example 221, cis-N-[2-fluoro-4-methyl-5-(1,2,4-triazin-6-yl)phenyl]-3-methyl-6-azabicyclo[3.1.1]heptane-6-carboxamide]",IC50,11 point curve,0.6 µM
same,pIC50,[2],6.00 to 10.00
"Cc1ccc(NC(=O)N2[C@@H]3C[C@@H](C)C[C@H]2C3)cc1-c1ncccn1 [Example 223, cis-3-methyl-N-(4-methyl-3-pyrimidin-2-ylphenyl)-6-azabicyclo[3.1.1]heptane-6-carboxamide]",IC50,11 point curve,0.04 µM
same,pIC50,[2],6.00 to 10.00
"Cc1ccc(NC(=O)N2C3C[C@@H](C)C[C@H]2C3)cc1-c1cc(F)ccn1 [Example 224, cis-N-[3-(4-fluoropyridin-2-yl)-4-methylphenyl]-3-methyl-6-azabicyclo[3.1.1]heptane-6-carboxamide]",IC50,11 point curve,0.04 µM
same,pIC50,[2],6.00 to 10.00
"Cc1ccc(NC(=O)N2[C@@H]3C[C@@H](C)C[C@H]2C3)cc1-c1cncc(C(F)(F)F)n1 [Example 228, cis-3-methyl-N-[4-methyl-3-[6-(trifluoromethyl)pyrazin-2-yl]phenyl]-6-azabicyclo[3.1.1]heptane-6-carboxamide]",IC50,11 point curve,0.09 µM
same,pIC50,[2],6.00 to 10.00
"Cc1ccc(NC(=O)N2[C@@H]3C[C@@H](C)C[C@H]2C3)cc1-c1nccnc1C(F)(F)F [Example 229, cis-3-methyl-N-[4-methyl-3-[3-(trifluoromethyl)pyrazin-2-yl]phenyl]-6-azabicyclo[3.1.1]heptane-6-carboxamide]",IC50,11 point curve,0.2 µM
same,pIC50,[2],6.00 to 10.00
"Cc1ccc(NC(=O)N2[C@@H]3C[C@@H](C)C[C@H]2C3)cc1-c1nccnc1F [Example 230, cis-N-[3-(3-fluoropyrazin-2-yl)-4-methylphenyl]-3-methyl-6-azabicyclo[3.1.1]heptane-6-carboxamide]",IC50,11 point curve,0.04 µM
same,pIC50,[2],6.00 to 10.00
